Where a name gives a salt, the structure may show the parent alone. Read-outs that look alike come from different tables or passages of the source.
Assays:
[1] = biological target: T1, NK1 TACHYKININ RECEPTOR, HUMAN(CHO) (Homo sapiens, UniProt P25103)
Procedure: (§1) As a sample, NK1 TACHYKININ RECEPTOR, HUMAN(CHO) diluted with incubation buffer (20 mM HEPES/NaOH buffer containing 1 mM MgCl2, 0.1% BSA: pH 7.4) was used (18.75 µg protein/ml). […] And 20 µl of CP-99,994 (final concentration of 1.5 µM) and 20 µl of distilled water were added to determine the amount of nonspecific binding and the amount of total binding, respectively. […] After one hour of incubation, the incubated mixture was filtered with suction and washed with a wash buffer (50 mM Tris/HCl buffer: pH 7.4) four times. The membrane fitted to each well of the MultiScreen was completely dried and punched inside each vial, and 5 ml of cocktail was added to give a sample to be measured.

male ferrets = assay: Antiemetic action against cisplatin-induced vomiting; type: in vivo; settings: test compound 3 mg/kg intravenously; cisplatin 10 mg/kg intraperitoneal; observed over six hours; inhibition vs control group, number of episodes
Procedure: A test was conducted using male ferrets (around 1.2 kg body weight) as follows. Vomiting was induced by intraperitoneal administration of 10 mg/kg of cisplatin to the ferrets in a volume of 3 ml/kg. […] Each test compound was administered intravenously through radial skin at a dose of 3 mg/kg, and immediately after the administration, cisplatin was administered intraperitoneally. Then vomiting symptoms due to cisplatin was observed over six hours. […] The results are shown in Table 2 in terms of rates of inhibition to a control group using the number of times symptoms of vomiting occurred as an index.

[2] = biological target: T1, NK1 TACHYKININ RECEPTOR, HUMAN(CHO); assay: biochemical
Procedure: as §1

T1 sequence (P25103 whole entry): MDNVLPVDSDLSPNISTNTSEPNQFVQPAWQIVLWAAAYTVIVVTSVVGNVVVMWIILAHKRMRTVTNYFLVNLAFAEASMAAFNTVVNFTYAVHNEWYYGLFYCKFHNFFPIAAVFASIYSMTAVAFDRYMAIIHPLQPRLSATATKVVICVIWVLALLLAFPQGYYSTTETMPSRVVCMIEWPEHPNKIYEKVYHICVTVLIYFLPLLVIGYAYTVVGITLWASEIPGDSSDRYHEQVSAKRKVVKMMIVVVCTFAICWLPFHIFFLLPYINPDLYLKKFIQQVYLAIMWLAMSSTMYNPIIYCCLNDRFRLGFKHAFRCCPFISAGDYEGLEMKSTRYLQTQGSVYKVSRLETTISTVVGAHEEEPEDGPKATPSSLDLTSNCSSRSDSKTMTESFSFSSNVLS

| Compound | Ki [1] | Rate of Inhibition (%) Retching (male ferrets) | Rate of Inhibition (%) Vomiting (male ferrets) | Ki [2] |
| --- | --- | --- | --- | --- |
| (2S,3S)-3-[(5-phenyl-2,3-dihydrobenzofuran-7-yl)methyl]amino-2-phenylpiperidine hydrochloride [Example 9] | 0.41 nM | 68.4% | 59.3% |  |
| Cl.c1ccc([C@@H]2NCCC[C@@H]2NCc2cc(-n3cnnn3)cc3c2OCC3)cc1 [Example 3, (2S,3S)-3-[(5-(tetrazole-1-yl)-2,3-dihydrobenzofuran-7-yl)methyl]amino-2-phenylpiperidine hydrochloride] |  | 59.1% | 61.0% | 0.18 nM |
| c1ccc([C@@H]2NCCC[C@@H]2NCc2cc(-c3cccs3)cc3c2OCC3)cc1 [Example 6, (2S,3S)-3-[(5-(thiophene-2-yl)-2,3-dihydrobenzofuran-7-yl)methyl]amino-2-phenylpiperidine hydrochloride] |  |  |  | 0.35 nM |
| Cl.FC(F)(F)c1nc(-c2cc3c(c(CN[C@H]4CCCN[C@H]4c4ccccc4)c2)OCC3)no1 [Example 15, (2S, 3S)-3-[(5-(5-trifluoromethyl-1,2,4-oxadiazole-3-yl)-2,3-dihydrobenzofuran-7-yl)methyl]amino-2-phenylpiperidine hydrochloride] |  | 63.2% | 66.8% |  |
| c1ccc([C@@H]2NCCC[C@@H]2NCc2cc(-c3ccsc3)cc3c2OCC3)cc1 [Example 7, (2S,3S)-3-[(5-(thiophene-3-yl)-2,3-dihydrobenzofuran-7-yl)methyl]amino-2-phenylpiperidine hydrochloride] |  |  |  | 0.35 nM |
| Cl.c1ccc([C@@H]2NCCC[C@@H]2NCc2c3c(cc4c2OCC4)OCC3)cc1 [Example 16, (2S,3S)-3-[(2,3,6,7-tetrahydrobenzo[1,2-b:4,5-b']difuran-4-yl)methyl]amino-2-phenylpiperidine hydrochloride] |  | 58.7% | 62.6% | 1.53 nM |
| Cl.FC(F)(F)c1ccc(-c2cc3c(c(CN[C@H]4CCCN[C@H]4c4ccccc4)c2)OCC3)cc1 [Example 12, (2S,3S)-3-[(5-(4-trifluoromethylphenyl)-2,3-dihydrobenzofuran-7-yl)methyl]amino-2-phenylpiperidine hydrochloride] |  | 88.4% | 91.1% | 1.01 nM |

From patent publication EP1219619B1, “3-AMINO-2-[…] DERIVATIVES AS SUBSTANCE P ANTAGONISTS” (HISAMITSU PHARMACEUTICAL CO. INC., priority 1999, dated 2001)
